Tested on: HCT-116
Experiment: Inhibitory activity against HCT116 tumor cell line
Type: functional, cell-based
Conditions: Homo sapiens

Compound | IC50 [nM]
CC(C)(C)[Si](C)(C)OCCN(CCO[Si](C)(C)C(C)(C)C)c1ccccc1 | 1900
CS(=O)(=O)OCCN(CCOS(C)(=O)=O)c1ccccc1 | 25
CS(=O)(=O)OCCCN(CCCOS(C)(=O)=O)c1ccccc1 | 99

Reference: ChEMBL document CHEMBL1128146, “Tricarbonyl 6 arene chromium (0) based antitumor agents” (Bioorg Med Chem Lett, 1995)
